18 compounds from PubChem BioAssay AID256 (DTP/NCI, 2004) can be followed below.

Several values for one entry are separate records, joined by “and”; a condition that tells them apart may be missing. Identical values can stand only once. Inconclusive results and toxic doses are left out.

This experiment relates to CD2F1 mice, L1210 leukemia ip, survival T/C. The experiment is described as follows: NCI In Vivo Anticancer Drug Screen. Data for tumor model L1210 Leukemia (intraperitoneal) in CD2F1 (CDF1) mice. Particulars: higher = longer survival. Summed up: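 Activity against a transplanted murine tumor was judged by comparing the compound group with a vehicle group. The outcome in the treated animals was divided by that in the controls.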

[1] abbreviates: endpoint: mean survival time, dose: 50.0 mg/kg/injection, schedule: Q01DX009 (ip), vehicle: saline with Tween-80.
Setting [2] is: endpoint: mean survival time, dose: 12.5 mg/kg/injection, schedule: Q01DX005 (ip), vehicle: water.
Setting [3] is: endpoint: mean survival time, dose: 25.0 mg/kg/injection, schedule: Q01DX005 (ip), vehicle: water.
[4] abbreviates: endpoint: mean survival time, dose: 50.0 mg/kg/injection, schedule: Q01DX005 (ip), vehicle: water.
Where [5] appears, read: endpoint: mean survival time, dose: 100.0 mg/kg/injection, schedule: Q04DX003 (ip), vehicle: saline with Tween-80.
The mark [6] stands for this setting: endpoint: mean survival time, dose: 200.0 mg/kg/injection, schedule: Q04DX003 (ip), vehicle: saline with Tween-80.
Setting [7] is: endpoint: mean survival time, dose: 100.0 mg/kg/injection, schedule: Q01DX009 (ip), vehicle: saline with Tween-80.
Setting [8] is: endpoint: mean survival time, dose: 200.0 mg/kg/injection, schedule: Q01DX009 (ip), vehicle: saline with Tween-80.
[9] abbreviates: endpoint: mean survival time, dose: 100.0 mg/kg/injection, schedule: Q01DX005 (ip), vehicle: water.
[10] abbreviates: endpoint: mean survival time, dose: 200.0 mg/kg/injection, schedule: Q01DX005 (ip), vehicle: water.
The mark [11] stands for this setting: endpoint: mean survival time, dose: 400.0 mg/kg/injection, schedule: Q04DX003 (ip), vehicle: saline with Tween-80.

In the case of `O=C(O)c1cc(F)c(F)c(F)c1F`, the T/C is 91 % of control (endpoint: mean survival time, dose: 12.5 mg/kg/injection, schedule: Q01DX009 (ip), vehicle: saline with Tween-80); 97 % of control (endpoint: mean survival time, dose: 25.0 mg/kg/injection, schedule: Q01DX009 (ip), vehicle: saline with Tween-80); 96 % of control (endpoint: mean survival time, dose: 25.0 mg/kg/injection, schedule: Q04DX003 (ip), vehicle: saline with Tween-80); 103 % of control under setting [1]; 94 % of control (endpoint: mean survival time, dose: 50.0 mg/kg/injection, schedule: Q04DX003 (ip), vehicle: saline with Tween-80).
As for `CC[n+]1ccc(Nc2ccc(NC(=O)c3ccc(Nc4cc[n+](CC)c5ccc([N+](=O)[O-])cc45)cc3)cc2)cc1`, the T/C by setting is: (endpoint: mean survival time, dose: 2.0 mg/kg/injection, schedule: Q01DX009 (ip), vehicle: saline sonified) 105 % of control; (endpoint: mean survival time, dose: 4.0 mg/kg/injection, schedule: Q01DX009 (ip), vehicle: saline sonified) 108 % of control; (endpoint: mean survival time, dose: 8.0 mg/kg/injection, schedule: Q01DX009 (ip), vehicle: saline sonified) 123 % of control; (endpoint: mean survival time, dose: 11.0 mg/kg/injection, schedule: Q01DX009 (ip), vehicle: saline) 119 % of control; (endpoint: mean survival time, dose: 25.0 mg/kg/injection, schedule: Q01DX009 (ip), vehicle: saline) 162 % of control; (endpoint: mean survival time, dose: 37.5 mg/kg/injection, schedule: Q01DX009 (ip), vehicle: saline) 203 % of control.
Take `CC(=O)Nc1cc(NC(C)=O)cc(N(CCCl)CCCl)c1`: the T/C under setting [2] was 100 % of control, the T/C under setting [3] is 106 % of control and the T/C under setting [4] is 101 % of control.
For `CC(C)=C(CO)CCC(C)C`, the T/C was 100 % of control under setting [5] and 103 % of control under setting [6].
As to `OC(CN(C1CCCCC1)C1CCCCC1)c1ccc(Cl)c(Cl)c1` (stereo unspecified), the T/C is, setting by setting: (endpoint: mean survival time, dose: 100.0 mg/kg/injection, schedule: Q01DX001 (ip), vehicle: saline) 95 % of control; (endpoint: mean survival time, dose: 100.0 mg/kg/injection, schedule: Q04DX003 (ip), vehicle: saline) 95 % of control; (endpoint: mean survival time, dose: 200.0 mg/kg/injection, schedule: Q01DX001 (ip), vehicle: saline) 91 % of control; (endpoint: mean survival time, dose: 200.0 mg/kg/injection, schedule: Q04DX003 (ip), vehicle: saline) 98 % of control; (endpoint: mean survival time, dose: 400.0 mg/kg/injection, schedule: Q01DX001 (ip), vehicle: saline) 96 % of control; (endpoint: mean survival time, dose: 400.0 mg/kg/injection, schedule: Q04DX003 (ip), vehicle: saline) 101 % of control.
In the case of `COc1cccc2c1C(=O)c1c(O)c3c(c(O)c1C2=O)C[C@@](O)(C(=O)CN1CCOCC1)C[C@@H]3OC1CC(N)C(O)C(C)O1` (stereo partly specified), the T/C is 90 % of control (endpoint: mean survival time, dose: 6.25 mg/kg/injection, schedule: Q04DX003 (ip), vehicle: water); 91 % of control (endpoint: mean survival time, dose: 12.5 mg/kg/injection, schedule: Q04DX003 (ip), vehicle: water); 105 % of control (endpoint: mean survival time, dose: 25.0 mg/kg/injection, schedule: Q04DX003 (ip), vehicle: water); 91 % of control (endpoint: mean survival time, dose: 50.0 mg/kg/injection, schedule: Q04DX003 (ip), vehicle: water).
Consider `COC1C(O)CC(OC2CC(Oc3cc4cc5c(c(O)c4c(O)c3C)C(=O)[C@@H](OC3CC(OC4CC(OC6CC(C)(O)C(OC(C)=O)C(C)O6)C(O)C(C)O4)C(O)C(C)O3)[C@H]([C@H](OC)C(=O)[C@@H](O)[C@@H](C)O)C5)OC(C)C2OC(C)=O)OC1C` (stereo partly specified), for which the T/C (endpoint: mean survival time, dose: 62.5 micrograms/kg/injection, schedule: Q01DX009 (ip), vehicle: saline) is 120 % of control and the T/C (endpoint: mean survival time, dose: 250.0 micrograms/kg/injection, schedule: Q01DX009 (ip), vehicle: saline) is 92 % of control.
Consider `[C-]#[O+].[C-]#[O+].[C-]#[O+].[C-]#[O+].[C-]#[O+].[Cr].c1ccc([PH+](c2ccccc2)c2ccccc2)cc1`, for which the T/C under setting [1] is 100 % of control, the T/C under setting [7] was 91 % of control and the T/C under setting [8] is 93 % of control.
As to `NC(=O)c1ncn(C2OC(CO)C(O)C2O)c1C(N)=O` (stereo unspecified), the T/C is 102 % of control under setting [2]; 112 % of control under setting [3]; 107 % of control under setting [4]; 104 % of control under setting [9]; 112 % of control under setting [10].
As to `O=S1(=O)Cc2ccc(Br)cc2C1`, the T/C under setting [7] was 103 % of control; the T/C under setting [5] is 90 % of control; the T/C under setting [8] is 101 % of control; the T/C under setting [6] was 91 % of control; the T/C (endpoint: mean survival time, dose: 400.0 mg/kg/injection, schedule: Q01DX009 (ip), vehicle: saline with Tween-80) is 97 % of control; the T/C under setting [11] is 90 % of control.
Regarding `Cc1c(C)c(Cl)c(C)c(C)c1Cl`, the T/C (endpoint: mean survival time, dose: 5.0 mg/kg/injection, schedule: Q01DX009 (ip), vehicle: saline with Tween-80) was 98 % of control; the T/C (endpoint: mean survival time, dose: 5.0 mg/kg/injection, schedule: Q04DX003 (ip), vehicle: saline with Tween-80) is 100 % of control; the T/C (endpoint: mean survival time, dose: 10.0 mg/kg/injection, schedule: Q01DX009 (ip), vehicle: saline with Tween-80) is 104 % of control; the T/C (endpoint: mean survival time, dose: 10.0 mg/kg/injection, schedule: Q04DX003 (ip), vehicle: saline with Tween-80) is 100 % of control; the T/C (endpoint: mean survival time, dose: 20.0 mg/kg/injection, schedule: Q01DX009 (ip), vehicle: saline with Tween-80) was 98 % of control; the T/C (endpoint: mean survival time, dose: 20.0 mg/kg/injection, schedule: Q04DX003 (ip), vehicle: saline with Tween-80) was 105 % of control.
For the compound `CC12CCC3C(CCC4=CC(=O)C(C(O)(C(F)(F)F)C(F)(F)F)CC43C)C1CC(C(O)(C(F)(F)F)C(F)(F)F)C2=O` (stereo unspecified), the T/C (endpoint: mean survival time, dose: 100.0 mg/kg/injection, schedule: Q01DX009 (sc), vehicle: steriod suspending solution) is 90 % of control; the T/C (endpoint: mean survival time, dose: 200.0 mg/kg/injection, schedule: Q01DX009 (sc), vehicle: steriod suspending solution) is 95 % of control; the T/C (endpoint: mean survival time, dose: 400.0 mg/kg/injection, schedule: Q01DX009 (sc), vehicle: steriod suspending solution) was 92 % of control.
`O=[N+]([O-])c1ccc(Oc2ccc(S(=O)(=O)O)cc2)cc1`: the T/C (endpoint: mean survival time, dose: 25.0 mg/kg/injection, schedule: Q04DX002 (ip), vehicle: saline with Tween-80) was 95 % of control; the T/C (endpoint: mean survival time, dose: 50.0 mg/kg/injection, schedule: Q04DX002 (ip), vehicle: saline with Tween-80) is 103 % of control; the T/C (endpoint: mean survival time, dose: 100.0 mg/kg/injection, schedule: Q04DX002 (ip), vehicle: saline with Tween-80) is 91 % of control.
For the compound `Cc1cn(C2OC(CO)C(O)C2O)c([Se])nc1=O` (stereo unspecified), the T/C runs as follows: under setting [4], 97 % of control; under setting [9], 90 % of control; under setting [10], 90 % of control.
On to `O=c1cc(-c2ccccc2)[nH]c2c1CCCC2`, for which the T/C runs as follows: (endpoint: median survival time, dose: 12.5 mg/kg/injection, schedule: Q01DX009 (ip), vehicle: saline with Tween-80) 102 % of control; (endpoint: median survival time, dose: 25.0 mg/kg/injection, schedule: Q01DX009 (ip), vehicle: saline with Tween-80) 105 % of control; (endpoint: median survival time, dose: 50.0 mg/kg/injection, schedule: Q01DX009 (ip), vehicle: saline with Tween-80) 103 % of control and 108 % of control and 109 % of control; (endpoint: median survival time, dose: 100.0 mg/kg/injection, schedule: Q01DX009 (ip), vehicle: saline with Tween-80) 115 % of control and 116 % of control and 105 % of control; (endpoint: median survival time, dose: 200.0 mg/kg/injection, schedule: Q01DX009 (ip), vehicle: saline with Tween-80) 117 % of control and 120 % of control; (endpoint: median survival time, dose: 400.0 mg/kg/injection, schedule: Q01DX009 (ip), vehicle: saline with Tween-80) 90 % of control and 103 % of control.
Consider `CC(=O)Oc1cc([N+](=O)[O-])ccc1C(=O)O`, for which the T/C by setting is: under setting [7], 102 % of control; under setting [8], 102 % of control.
As to `CC1(C)SSC(C)(C)SS1`, the T/C runs as follows: under setting [5], 106 % of control; under setting [6], 97 % of control; under setting [11], 103 % of control.
For `COc1cc(/C=C2\NC(=O)NC2=O)ccc1O`, the T/C is, setting by setting: (endpoint: mean survival time, dose: 100.0 mg/kg/injection, schedule: Q01DX001 (ip), vehicle: saline with Tween-80) 94 % of control; (endpoint: mean survival time, dose: 200.0 mg/kg/injection, schedule: Q01DX001 (ip), vehicle: saline with Tween-80) 88 % of control; (endpoint: mean survival time, dose: 400.0 mg/kg/injection, schedule: Q01DX001 (ip), vehicle: saline with Tween-80) 90 % of control.
